Assay results reported in PubChem BioAssay AID1963963 (Molecular Pharmacology Branch, DTP, NCI, 2024).

Tested on: 958667-338-R-J2-PDC tumor spheroids viability
Assay: Anticancer human tumor 958667-338-R-J2-PDC patient-derived colon adenocarcinoma cell line growth inhibition [PI3K]
Conditions: spheroids with HUVEC and MSC; for IC50: curve of first compound; for viability, T/C: stronger effect = lower value; active = viability on the fitted dose curve at most 10% of control; inactive = the rest
Text: Combinatorial screen of targeted agents with the PI3K inhibitors inavolisib, alpelisib, duvelisib, and copanlisib in multi-cell type tumor spheroids
A high-throughput screen of multi-cell type tumor spheroids was designed to identify active combinations of targeted small molecules and PI3K pathway inhibitors. Complex spheroids include a stromal component modeled by human endothelial cells (HUVEC) and fibroblasts modeled by human mesenchymal stem cells (MSCs). The concentration ranges selected for each drug and investigational agent were based upon clinically achievable concentrations if the clinical Cmax of the agent was known.
Compounds. The drugs and investigational agents: inavolisib (NSC800729), alpelisib (NSC765974), duvelisib (NSC772469), copanlisib (NSC816437), ipatasertib (NSC767898), afuresertib (NSC778305), talazoparib (NSC767125), sapanisertib (NSC764658), selumetinib (NSC741078), tovorafenib (DAY101, NSC766906), vemurafenib (NSC761431), ravoxertinib (NSC781343), sotorasib (NSC818433), MRTX1133 (NSC 836407), abemaciclib (NSC 768073), palbociclib (NSC758247), venetoclax (NSC 766270), SY5609 (NSC837396), enzalutamide (NSC755605), and darolutamide (NSC825331), were obtained from the National Cancer Institute (NCI) Developmental Therapeutics Program Chemical Repository. The FDA-approved anticancer drug set is available from the NCI Developmental Therapeutics Program. […] The stock solutions were prepared in dimethyl sulfoxide (DMSO, Sigma-Aldrich, St. Louis, MO, cat. D2650) at 800-fold the tested concentration and stored at -70 degrees C prior to their use. All drugs and investigational agents were tested over a range starting from a high concentration at or near the clinical Cmax and decreasing in half-log increments. If the clinical Cmax for an agent had not been determined, the highest concentration tested was 10 microM.
Cell Culture. All cells were maintained in an incubator at 37 degrees C and 5% CO2 with 95% humidity. The PDC lines were cultured according to standard operating procedures established by the NCI PDMR (https://pdmr.cancer.gov/sops/default.htm). All PDCs were thawed and cultured in Matrigel-coated flasks prepared with a working solution of 1X Ham's F-12 nutrient mix, without supplementation (Invitrogen, Waltham, MA, cat. 11765054), 100 U/mL penicillin-streptomycin (Invitrogen, cat. 15140122), and 2.5% Matrigel (Corning Inc., Corning, NY, cat. 354248) for the first three passages. The 354836-022-R-J1-PDC, 475296-252-R-J1-PDC, and 997726-040-R-J2-PDC lines were cultured in 6A media, which includes advanced DMEM/F-12 (Thermo Fisher Scientific, cat. 12634028), 10 mM HEPES (Thermo Fisher Scientific, cat. 15630080), 1X GlutaMAX supplement (Thermo Fisher Scientific, cat. 35050061), 0.1 mg/mL primocin (InvivoGen, San Diego, CA, cat. ant-pm-2), 10% defined fetal bovine serum, heat inactivated (HyClone Laboratories Inc., Logan, UT, cat. SH30070.03HI), 50% L-WRN conditioned media (ATCC, cat. CRL-3276), 1.25 mM N-Acetyl-L-cysteine (Sigma-Aldrich, cat. A9165), 10 mM nicotinamide (Sigma-Aldrich, cat. N0636), 1X B-27 supplement (Thermo Fisher Scientific, cat. 17504044), 1X N-2 supplement (Thermo Fisher Scientific, cat. 17502048), and 10 microM Y-27632 dihydrochloride (Tocris Bioscience, Bristol, United Kingdom, cat. 1254). The 624824-186-R-J2-PDC line was cultured in 6C/Colon 1B media, which includes all 6A media components plus 50 ng/mL human EGF recombinant protein (Thermo Fisher Scientific, cat. PHG0311). […]
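Note: spheroids exposed to compounds for seven days before readout.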

Cn1ncnc1[C@H]1c2n[nH]c(=O)c3cc(F)cc(c23)N[C@@H]1c1ccc(F)cc1 + CC(Nc1ccc2c(c1)OCCn1cc(N3C(=O)OCC3C(F)F)nc1-2)C(N)=O
inactive: viability, T/C (second compound 0.00316 µM, first compound 0.000316 µM) 111% | viability, T/C (second compound 0.00316 µM, first compound 0.001 µM) 107% | viability, T/C (second compound 0.00316 µM, first compound 0.00316 µM) 105% | viability, T/C (second compound 0.00316 µM, first compound 0.01 µM) 101% | viability, T/C (second compound 0.00316 µM, first compound 0.0316 µM) 112% | viability, T/C (second compound 0.00316 µM, first compound 0.1 µM) 95.9% | viability, T/C (second compound 0.01 µM, first compound 0.000316 µM) 93.8% | viability, T/C (second compound 0.01 µM, first compound 0.001 µM) 87.4% | viability, T/C (second compound 0.01 µM, first compound 0.00316 µM) 88.5% | viability, T/C (second compound 0.01 µM, first compound 0.01 µM) 117% | viability, T/C (second compound 0.01 µM, first compound 0.0316 µM) 85.7% | viability, T/C (second compound 0.01 µM, first compound 0.1 µM) 114% | viability, T/C (second compound 0.0316 µM, first compound 0.000316 µM) 82.8% | viability, T/C (second compound 0.0316 µM, first compound 0.001 µM) 95.9% | viability, T/C (second compound 0.0316 µM, first compound 0.00316 µM) 77.7% | viability, T/C (second compound 0.0316 µM, first compound 0.01 µM) 89.3% | viability, T/C (second compound 0.0316 µM, first compound 0.0316 µM) 95.2% | viability, T/C (second compound 0.0316 µM, first compound 0.1 µM) 81.6% | viability, T/C (second compound 0.1 µM, first compound 0.000316 µM) 104% | viability, T/C (second compound 0.1 µM, first compound 0.001 µM) 82.4% | viability, T/C (second compound 0.1 µM, first compound 0.00316 µM) 82.4% | viability, T/C (second compound 0.1 µM, first compound 0.01 µM) 80.8% | viability, T/C (second compound 0.1 µM, first compound 0.0316 µM) 88.4% | viability, T/C (second compound 0.1 µM, first compound 0.1 µM) 74.7% | viability, T/C (second compound 0.316 µM, first compound 0.000316 µM) 68.3% | viability, T/C (second compound 0.316 µM, first compound 0.001 µM) 65.2% | viability, T/C (second compound 0.316 µM, first compound 0.00316 µM) 75.5% | viability, T/C (second compound 0.316 µM, first compound 0.01 µM) 59.7% | viability, T/C (second compound 0.316 µM, first compound 0.0316 µM) 60.6% | viability, T/C (second compound 0.316 µM, first compound 0.1 µM) 68.4% | viability, T/C (second compound 1 µM, first compound 0.000316 µM) 65.7% | viability, T/C (second compound 1 µM, first compound 0.001 µM) 50.8% | viability, T/C (second compound 1 µM, first compound 0.00316 µM) 61.6% | viability, T/C (second compound 1 µM, first compound 0.01 µM) 62.7% | viability, T/C (second compound 1 µM, first compound 0.0316 µM) 68.8% | viability, T/C (second compound 1 µM, first compound 0.1 µM) 55.7%
> 0.1 µM: IC50 (second compound 0.00316 µM) | IC50 (second compound 0.01 µM) | IC50 (second compound 0.0316 µM) | IC50 (second compound 0.1 µM) | IC50 (second compound 0.316 µM) | IC50 (second compound 1 µM)
